Changes are numbered by the printed parent chain. Like-named read-outs stand apart in the source and are kept apart here.
Assays:
[1] = target: T1, wild type androgen receptor (AR) (Homo sapiens, UniProt P10275); experiment: AR-binding inhibition test (wild type), radio-labeled Mibolerone displacement; conditions: read-out: inhibition rate, wild type
T1 sequence (P10275 1-920): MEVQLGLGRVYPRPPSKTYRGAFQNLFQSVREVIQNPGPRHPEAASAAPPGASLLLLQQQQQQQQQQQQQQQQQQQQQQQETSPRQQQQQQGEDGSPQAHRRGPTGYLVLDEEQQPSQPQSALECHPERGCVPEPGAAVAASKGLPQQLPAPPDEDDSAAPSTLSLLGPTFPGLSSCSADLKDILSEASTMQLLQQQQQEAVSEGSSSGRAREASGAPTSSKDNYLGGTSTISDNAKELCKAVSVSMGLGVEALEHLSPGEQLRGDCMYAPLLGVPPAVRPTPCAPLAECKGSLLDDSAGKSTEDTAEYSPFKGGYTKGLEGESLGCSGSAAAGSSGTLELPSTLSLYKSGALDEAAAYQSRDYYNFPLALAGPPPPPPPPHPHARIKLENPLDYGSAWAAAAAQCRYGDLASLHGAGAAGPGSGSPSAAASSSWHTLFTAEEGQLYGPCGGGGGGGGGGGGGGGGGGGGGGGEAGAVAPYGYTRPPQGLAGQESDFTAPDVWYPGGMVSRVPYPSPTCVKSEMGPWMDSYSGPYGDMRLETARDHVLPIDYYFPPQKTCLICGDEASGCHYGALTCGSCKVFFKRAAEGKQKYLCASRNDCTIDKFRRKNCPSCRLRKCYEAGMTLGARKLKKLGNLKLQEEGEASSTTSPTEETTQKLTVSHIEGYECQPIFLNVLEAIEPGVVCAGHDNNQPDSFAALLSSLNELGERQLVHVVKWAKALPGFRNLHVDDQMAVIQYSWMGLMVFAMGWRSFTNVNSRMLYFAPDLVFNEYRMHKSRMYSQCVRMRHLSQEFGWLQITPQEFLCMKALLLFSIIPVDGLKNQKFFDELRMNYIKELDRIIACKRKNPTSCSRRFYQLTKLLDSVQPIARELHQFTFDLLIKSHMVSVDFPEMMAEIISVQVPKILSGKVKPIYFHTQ
Description: (§1) AR-Binding Inhibition Test (Wild Type and LNCaP Type)
(§2) To a solution of wild type or LNCaP type mutant androgen receptor (AR) was added 3 nM radio-labeled Mibolerone and final concentration 1 μM of the compound. The mixture was incubated at 4° C. for 3 hours, and B (Bound) and F (Free) Mibolerones were separated by the dextran/charcoal method. The label count of B was measured and the inhibition rate of the compound was calculated.

[2] = target: T2, LNCaP type mutant androgen receptor (AR) (Homo sapiens, UniProt P10275, T878A); experiment: AR-binding inhibition test (LNCaP type), radio-labeled Mibolerone displacement; conditions: read-out: inhibition rate, LNCaP type
T2 sequence (P10275 1-920 T878A): T1 sequence (P10275 1-920) with T878A
Description: as §1, §2

[3] = target: T3, mutant AR (W741C) (Homo sapiens, UniProt P10275, W742C); experiment: AR transcription inhibition test (luciferase reporter in Cos-7 cells); assay type: cell-based; conditions: compound 1 μM; DHT 0.1 μM; Cos-7 cells cotransfected with mutant AR (W741C) and androgen responsive luciferase reporter; 24 hr; relative to control (0.1 μM DHT); read-out: AR transcription inhibitory rate (%)
T3 construct: expressed in transfected cells; host or cells: Cos-7
T3 sequence (P10275 1-920 W742C): T1 sequence (P10275 1-920) with W742C
Description: AR Transcription Inhibition Test
Cos-7 cells (5,000,000 cells) were inoculated to a flask, and incubated in a culture medium (DMEM +10% Dextran Charcoal (DCC)-Fetal Bovine Serum (FBS) and 2 mM glutamine) for 24 hours. Then, a vector DNA harboring mutant AR (W741C) and a vector DNA containing a luciferase gene bound at the downstream of an androgen responsive promoter were cotransfected by a liposome method. After 4 hr, the medium was changed and, after culture for 3 hr, DHT (dihydrotestosterone) at the final concentration of 0.1 μM and the compound at the final concentration of 1 μM were added. After further culture for 24 hr, the luciferase activity was measured, and the AR transcription inhibitory activity of the compound was examined.

[4] = tested on: Human prostate cancer cells LNCaP-FGC; experiment: Prostate specific antigen (PSA) production inhibition test in prostate cancer cells; assay type: cell-based; conditions: for inhibition at 1 µM: Homo sapiens, 72 h, read-out: PSA production inhibitory rate (%)
[5] = compound final concentration 1 μM, 3 nM radio-labeled Mibolerone, 4° C., 3 hours, dextran/charcoal method

SMILES | inhibition at 1 µM [1] [%] | inhibition at 1 µM [2] [%] | inhibition at 1 µM [3] [%] | inhibition at 1 µM [4] [%] | also measured
Cc1nn(-c2ccc(C#N)c(Cl)c2)c(C)c1Cc1ccc(C(=O)NCC(O)CO)cc1 (racemic) [Example 321, (±)-4-{[1-(3-chloro-4-cyanophenyl)-3,5-dimethyl-1H-pyrazol-4-yl]methyl}-N-(2,3-dihydroxypropyl)benzamide] | 78 | 84 | 38 | 91 | –
Cc1nn(-c2ccc(C#N)c(Cl)c2)c(C)c1Cc1ccc(C(=O)N(C)CCO)cc1 [Example 296, 4-{[1-(3-chloro-4-cyanophenyl)-3,5-dimethyl-1H-pyrazol-4-yl]methyl}-N-(2-hydroxyethyl)-N-methylbenzamide] | 52 | 64 | 39 | 79 | –
Cc1nn(-c2ccc(C#N)c(Cl)c2)c(C)c1Cc1ccc(C(=O)N2CC[C@H](O)C2)cc1 [Example 332, 2-chloro-4-[4-(4-{[(3S)-3-hydroxypyrrolidin-1-yl]carbonyl}benzyl)-3,5-dimethyl-1H-pyrazol-1-yl]benzonitrile] | 72 | 78 | 22 | 84 | –
Cc1nn(-c2ccc(C#N)c(Cl)c2)c(C)c1Cc1ccc(-c2nnc(C(N)=O)o2)cc1 [Example 350, 5-(4-{[1-(3-chloro-4-cyanophenyl)-3,5-dimethyl-1H-pyrazol-4-yl]methyl}phenyl)-1,3,4-oxadiazole-2-carboxamide] | 87 | 92 | 93 | 101 | –
Cc1nn(-c2ccc(C#N)c(Cl)c2)c(C)c1Cc1ccc(C(=O)NC(C)(C)C)cc1 [Example 351, N-tert-butyl-4-{[1-(3-chloro-4-cyanophenyl)-3,5-dimethyl-1H-pyrazol-4-yl]methyl}benzamide] | – | – | – | 109 | –
Cc1nn(-c2ccc(C#N)c(Cl)c2)c(C)c1Cc1ccc(C(=O)N2CCC(O)CC2)cc1 [Example 355, 2-chloro-4-(4-{4-[(4-hydroxypiperidin-1-yl)carbonyl]benzyl}-3,5-dimethyl-1H-pyrazol-1-yl)benzonitrile] | 47 | 51 | 23 | 117 | –
Cc1nn(-c2ccc(C#N)c(Cl)c2)c(C)c1Cc1ccc(C(=O)NCC(C)(C)O)cc1 [Example 356, 4-{[1-(3-chloro-4-cyanophenyl)-3,5-dimethyl-1H-pyrazol-4-yl]methyl}-N-(2-hydroxy-2-methylpropyl)benzamide] | – | – | – | 98 | –
Cc1nn(-c2ccc(C#N)c(Cl)c2)c(C)c1Oc1ccc(C(=O)N2CCOCC2)cc1 [Example 357, 2-chloro-4-{3,5-dimethyl-4-[4-(morpholin-4-ylcarbonyl)phenoxy]-1H-pyrazol-1-yl}benzonitrile] | – | – | – | 100 | –
Cc1nn(-c2ccc(C#N)c(Cl)c2)c(C)c1Cc1ccc(C(=O)N2CC(O)C2)cc1 [Example 363, 2-chloro-4-(4-{4-[(3-hydroxyazetidin-1-yl)carbonyl]benzyl}-3,5-dimethyl-1H-pyrazol-1-yl)benzonitrile] | 73 | 79 | 23 | 100 | –
Cc1nn(-c2ccc(C#N)c(Cl)c2)c(C)c1Oc1ccc(C(=O)N2CCS(=O)(=O)CC2)cc1 [Example 367, 2-chloro-4-(4-{4-[(1,1-dioxidethiomorpholin-4-yl)carbonyl]phenoxy}-3,5-dimethyl-1H-pyrazol-1-yl)benzonitrile] | – | – | 24 | – | inhibition at 1 µM [1, 5]: 49%; inhibition at 1 µM [2, 5]: 77%; inhibition at 1 µM ([4]; compound 1 μM, testosterone final concentration 0.1 ng/m, PSA in culture supernatant after 3 days by ELISA, testosterone non-addition group = 100%, testosterone addition group = 0%): 109%
Cc1nn(-c2ccc(C#N)c(Cl)c2)c(C)c1Oc1ccc(NC(=O)C(C)(C)C)cn1 [Example 455, N-(6-{[1-(3-chloro-4-cyanophenyl)-3,5-dimethyl-1H-pyrazol-4-yl]oxy}pyridin-3-yl)-2,2-dimethylpropanamide] | – | – | – | 108 | –
CC(O)(CS(=O)(=O)c1ccc(F)cc1)C(=O)Nc1ccc(C#N)c(C(F)(F)F)c1 (stereo not drawn) [bicartamide, reference compound] | – | – | – | – | PSA production inhibitory rate (%) ([4]; 1 µM): 75%
